# Results: patent publication US7230001B1, “Arylalkane, arylalkene and aryl azaalkane, medicaments containing said compounds and method for the production thereof” (Boehringer Ingelheim Pharma GmbH & Co. KG, priority 1999, dated 2007)
row,Compound,melting point
1,"COc1ccc(C(=O)CCC(=O)N2CCC(N3Cc4ccccc4NC3=O)CC2)cc1 [compound 25, 3,4-dihydro-3-{1-[1,4-dioxo-4-(4-methoxyphenyl)butyl]-4-piperidinyl}-2(1H)-quinazolinone]",171 to 172 °C
2,"O=C(CCC(=O)N1CCC(N2Cc3ccccc3NC2=O)CC1)c1ccc(Cl)cc1 [compound 26, 3,4-dihydro-3-{1-[4-(4-chlorophenyl)-1,4-dioxobutyl]-4-piperidinyl}-2(1H)-quinazolinone]",237 to 238 °C
3,"N#Cc1ccc(C(=O)CCC(=O)N2CCC(N3Cc4ccccc4NC3=O)CC2)cc1 [compound 72, 3-{1-[4-(4-cyanophenyl)-1,4-dioxobutyl]-4-piperidinyl}-3,4-dihydro-2(1H)-quinazolinone]",191 to 193 °C
4,"CC(=O)Nc1ccc(C(=O)CCC(=O)N2CCC(n3cc(-c4ccccc4)[nH]c3=O)CC2)cc1Br [compound 21, 1-{1-[4-(4-acetylamino-3-bromophenyl)-1,4-dioxobutyl]-4-piperidinyl}-1,3-dihydro-4-phenyl-2(2H)-imidazolone]",243 °C
5,"COc1ccccc1C(=O)CCC(=O)N1CCC(N2Cc3ccccc3NC2=O)CC1 [compound 66, 3-{1-[1,4-dioxo-4-(2-methoxyphenyl)butyl]-4-piperidinyl}-3,4-dihydro-2(1H)-quinazolinone]",174 to 175 °C
6,"Nc1ccc(C(=O)CCC(=O)N2CCC(n3cc(-c4ccccc4)[nH]c3=O)CC2)cc1Br [compound 24, 1-{1-[4-(4-amino-3-bromophenyl)-1,4-dioxobutyl]-4-piperidinyl}-1,3-dihydro-4-phenyl-2(2H)-imidazolone]",267 °C
7,"CC(=O)Nc1ccc(C(=O)CCC(=O)N2CCC(N3Cc4ccccc4NC3=O)CC2)cc1Br [compound 18, 3-{1-[4-(4-acetylamino-3-bromophenyl)-1,4-dioxobutyl]-4-piperidinyl}-3,4-dihydro-2(1H)-quinazolinone]",243 °C
8,"O=C(CCC(=O)N1CCC(N2Cc3ccccc3NC2=O)CC1)c1cc(Br)cc(Br)c1 [compound 65, 3-{1-[4-(3,5-dibromophenyl)-1,4-dioxobutyl]-4-piperidinyl}-3,4-dihydro-2(1H)-quinazolinone]",212 to 214 °C
9,"Nc1c(Br)cc(C(=O)CCC(=O)N2CCC(N3Cc4cccnc4NC3=O)CC2)cc1Br [compound 13, 3-{1-[4-(4-amino-3,5-dibromophenyl)-1,4-dioxobutyl]-4-piperidinyl}-3,4-dihydro-2(1H)-pyrido[2,3-d]pyrimidinone]",> 225 °C
10,"O=C(CCC(=O)N1CCC(N2Cc3ccccc3NC2=O)CC1)c1ccc(-c2ccccc2)cc1 [compound 62, 3-{1-[4-(4-biphenylyl)-1,4-dioxobutyl]-4-piperidinyl}-3,4-dihydro-2(1H)-quinazolinone]",200 °C
11,"O=C(CCC(=O)N1CCC(N2Cc3ccccc3NC2=O)CC1)c1ccc(F)cc1 [compound 67, 3-{1-[1,4-dioxo-4-(4-fluorophenyl)butyl]-4-piperidinyl}-3,4-dihydro-2(1H)-quinazolinone]",164 to 166 °C
12,"Nc1c(Br)cc(C(=O)CCC(=O)N2CCC(N3Cc4cnccc4NC3=O)CC2)cc1Br [compound 43, 3-{1-[4-(4-amino-3,5-dibromophenyl)-1,4-dioxobutyl]-4-piperidinyl}-3,4-dihydro-2(1H)-pyrido[4,3-d]pyrimidinone]",> 250 °C
13,"Nc1c(Br)cc(C(=O)CCC(=O)N2CCC(N3Cc4ccncc4NC3=O)CC2)cc1Br [compound 42, 3-{1-[4-(4-amino-3,5-dibromophenyl)-1,4-dioxobutyl]-4-piperidinyl}-3,4-dihydro-2(1H)-pyrido[3,4-d]pyrimidinone]",> 250 °C
14,"COc1cc2c(cc1OC)NC(=O)N(C1CCN(C(=O)CCC(=O)c3cc(Br)c(N)c(Br)c3)CC1)C2 [compound 29, 3-{1-[4-(4-amino-3,5-dibromophenyl)-1,4-dioxobutyl]-4-piperidinyl}-3,4-dihydro-6,7-dimethoxy-2(1H)-quinazolinone]",256 to 258 °C
15,"Nc1c(Br)cc(C(=O)CCC(=O)N2CCN(c3nc4ccccc4[nH]c3=O)CC2)cc1Br [compound 61, 3-{1-[4-(4-amino-3,5-dibromophenyl)-1,4-dioxobutyl]-4-piperazinyl}-2(1H)-quinoxalinone]",246 to 252 °C
16,"CNc1ccc(C(=O)CCC(=O)N2CCC(N3Cc4ccccc4NC3=O)CC2)cc1[N+](=O)[O-] [compound 27, 3,4-dihydro-3-{1-[1,4-dioxo-4-(4-methylamino-3-nitrophenyl)butyl]-4-piperidinyl}-2(1H)-quinazolinone]",258 to 259 °C (dec.)
17,"Nc1c(Br)cc(C(=O)CCC(=O)N2CCN(c3cc4ccccc4[nH]c3=O)CC2)cc1Br [compound 59, 3-{1-[4-(4-amino-3,5-dibromophenyl)-1,4-dioxobutyl]-4-piperazinyl}-2(1H)-quinolinone]",272 to 274 °C (dec.)
18,"O=C(CCC(=O)N1CCC(N2Cc3ccccc3NC2=O)CC1)c1ccc(Cl)c([N+](=O)[O-])c1 [compound 28, 3,4-dihydro-3-{1-[4-(4-chloro-3-nitrophenyl)-1,4-dioxo-butyl]-4-piperidinyl}-2(1H)-quinazolinone]",207 to 209 °C
19,"Nc1c(Br)cc(CCCC(=O)N2CCC(n3cc(-c4ccccc4)[nH]c3=O)CC2)cc1Br [compound 64, 1-{1-[4-(4-amino-3,5-dibromophenyl)-1-oxobutyl]-4-piperidinyl}-1,3-dihydro-4-phenyl-2(2H)-imidazolone]",162.5 to 163.5 °C
20,"CC(=O)Nc1ccc(C(=O)CCC(=O)N2CCC(n3c(=O)[nH]c4ccccc43)CC2)cc1Br [compound 19, 1-{1-[4-(4-acetylamino-3-bromophenyl)-1,4-dioxobutyl]-4-piperidinyl}-1,3-dihydro-2(2H)-benzimidazolone]",128 °C
